Results on 19 compounds are retold here after US20230072683A1, “PYRIDO-PYRIMIDIN DERIVATIVES AND PHARMACEUTICAL COMPOSITION, FOR USE IN PREVENTING OR TREATING PI3 KINASE RELATED DISEASES, COMPRISING SAME AS ACTIVE INGREDIENT” (BORYUNG PHARMACEUTICAL CO., LTD, priority 2019, published 2023).

Where two headings read alike, the source gives them in different places.

One may read the inhibition as the change of the read-out against control, counted positive when it falls.

Assay [1] deals with PI3K-δ (PI3K(p1108/p857) (h)) (Homo sapiens, UniProt O00329). Nature of the assay: Evaluation of inhibitory activity against PI3K-δ (HTRF kinase assay). It counts as biochemical. The note with it: for inhibition at 0.01 µM: compound concentration 0.01 μM, read-out: EXP_VALUE(% Inhibition) PI3K-δ 0.01 μM; for inhibition at 0.1 µM: read-out: EXP_VALUE(% Inhibition) PI3K-δ 0.1 μM. The gist of the method: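 HTRF read-out (665/620 nm ratio ×10000) used Eu-labelled anti-GST, GST-tagged GRP1 PH domain and streptavidin-allophycocyanin after EDTA/PIP3 stop.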
Chain of PI3K-δ (PI3K(p1108/p857) (h)) (O00329 whole entry, the tested form may be a part): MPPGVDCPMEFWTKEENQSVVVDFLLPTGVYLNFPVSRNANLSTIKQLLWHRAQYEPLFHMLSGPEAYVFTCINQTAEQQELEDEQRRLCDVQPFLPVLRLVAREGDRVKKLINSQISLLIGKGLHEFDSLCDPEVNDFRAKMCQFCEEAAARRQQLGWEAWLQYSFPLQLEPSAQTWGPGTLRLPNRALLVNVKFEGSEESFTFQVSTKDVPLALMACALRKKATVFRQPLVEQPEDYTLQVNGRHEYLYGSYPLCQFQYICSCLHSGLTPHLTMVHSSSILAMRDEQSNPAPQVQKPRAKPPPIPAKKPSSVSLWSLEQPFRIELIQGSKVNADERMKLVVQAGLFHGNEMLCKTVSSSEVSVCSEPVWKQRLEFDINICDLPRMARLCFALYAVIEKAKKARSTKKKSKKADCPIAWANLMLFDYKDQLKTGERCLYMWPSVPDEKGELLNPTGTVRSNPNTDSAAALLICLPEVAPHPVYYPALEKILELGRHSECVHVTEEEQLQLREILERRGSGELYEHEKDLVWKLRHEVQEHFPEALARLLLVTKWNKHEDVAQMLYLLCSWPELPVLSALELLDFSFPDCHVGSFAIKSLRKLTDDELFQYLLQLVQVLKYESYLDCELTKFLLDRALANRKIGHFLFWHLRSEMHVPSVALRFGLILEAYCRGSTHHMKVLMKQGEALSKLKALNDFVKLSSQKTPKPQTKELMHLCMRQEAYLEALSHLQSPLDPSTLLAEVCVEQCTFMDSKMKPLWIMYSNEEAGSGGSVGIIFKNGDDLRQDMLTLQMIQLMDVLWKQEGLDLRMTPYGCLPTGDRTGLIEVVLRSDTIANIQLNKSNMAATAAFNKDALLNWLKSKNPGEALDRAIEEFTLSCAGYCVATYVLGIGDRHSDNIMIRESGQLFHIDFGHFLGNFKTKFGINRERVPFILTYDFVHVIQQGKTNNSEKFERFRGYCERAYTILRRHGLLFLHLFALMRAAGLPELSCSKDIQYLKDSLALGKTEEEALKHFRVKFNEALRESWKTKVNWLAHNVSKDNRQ
Chain of PI3K-δ (PI3K(p1108/p857) (h)) (P27986 whole entry partner, the tested form may be a part): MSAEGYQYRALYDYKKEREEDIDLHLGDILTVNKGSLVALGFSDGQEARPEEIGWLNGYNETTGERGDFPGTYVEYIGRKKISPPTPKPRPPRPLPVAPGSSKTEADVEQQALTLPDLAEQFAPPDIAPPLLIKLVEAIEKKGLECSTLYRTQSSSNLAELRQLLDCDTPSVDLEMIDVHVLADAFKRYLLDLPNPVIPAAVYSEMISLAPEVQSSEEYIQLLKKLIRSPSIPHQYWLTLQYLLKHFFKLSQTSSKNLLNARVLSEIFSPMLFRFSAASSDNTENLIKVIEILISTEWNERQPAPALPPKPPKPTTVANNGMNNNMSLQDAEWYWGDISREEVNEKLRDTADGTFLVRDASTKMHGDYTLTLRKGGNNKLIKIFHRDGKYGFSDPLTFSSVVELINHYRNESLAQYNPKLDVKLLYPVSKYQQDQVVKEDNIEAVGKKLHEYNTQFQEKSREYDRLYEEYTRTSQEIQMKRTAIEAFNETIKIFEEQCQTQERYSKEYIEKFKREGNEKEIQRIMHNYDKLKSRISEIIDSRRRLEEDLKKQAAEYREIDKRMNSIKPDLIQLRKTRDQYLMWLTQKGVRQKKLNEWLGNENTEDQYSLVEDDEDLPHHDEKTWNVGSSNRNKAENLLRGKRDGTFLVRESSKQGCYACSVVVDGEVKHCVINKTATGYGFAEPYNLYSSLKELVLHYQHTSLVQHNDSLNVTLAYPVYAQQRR

For assay [2], the target named is DNA-PK(h) (Homo sapiens, UniProt P78527). Nature of the assay: Evaluation of inhibitory activity against DNA-PK (HTRF kinase assay, GST-cMyc-p53 substrate). In kind it is biochemical. The note with it: for inhibition at 0.01 µM: compound concentration 0.01 μM, read-out: EXP_VALUE(% Inhibition) DNA-PK(h) 0.01 μM; for inhibition at 0.1 µM: read-out: EXP_VALUE(% Inhibition) DNA-PK(h) 0.1 μM. The gist of the method: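 Human DNA-PK with 50 μM GST-cMyc-p53 substrate; reaction started with Mg/ATP, run 30 min at room temperature, stopped with EDTA. Phospho-Ser15 p53 detected by HTRF (Eu anti-phospho-Ser15, d2 anti-GST), signal = 10000×(Em 665/Em 620).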
Background: Time-resolved FRET reads energy transfer from a long-lived donor to a nearby acceptor.

Regarding `CCCC(=O)c1cccc2c(Cl)c([C@H](C)Nc3ncnc4[nH]ccc(=O)c34)n(-c3ccccc3)c(=O)c12` [Example 268, (S)-4-((1-(8-butyryl-4-chloro-1-oxo-2-phenyl-1,2-dihydroisoquinolin-3-yl)ethyl)amino)pyrido[2,3-d]pyrimidin-5(8H)-one], the inhibition at 0.01 µM in assay [1] came to 76%; in assay [2], 27%.
With `C[C@H](Nc1ncnc2[nH]ccc(=O)c12)c1c(Cl)c2cccc(-c3ccc(C(C)(C)C)nc3)c2c(=O)n1-c1ccccc1` [Example 34, (S)-4-((1-(8-(6-(tert-butyl)pyridin-3-yl)-4-chloro-1-oxo-2-phenyl-1,2-dihydroisoquinolin-3-yl)ethyl)amino)pyrido[2,3-d]pyrimidin-5(8H)-one], the inhibition at 0.01 µM in assay [1] was 74%; in assay [2] it was 56%.
As for `C[C@H](Nc1ncnc2[nH]ccc(=O)c12)c1c(Cl)c2cccc(C#Cc3ccc(C(F)(F)F)cc3)c2c(=O)n1-c1ccccc1` [Example 315, (S)-4-((1-(4-chloro-1-oxo-2-phenyl-8-((4-(trifluoromethyl)phenyl)ethynyl)-1,2-dihydroisoquinolin-3-yl)ethyl)amino)-5-oxo-5,8-dihydropyrido[2,3-d]pyrimidin-5(8H)-one, 2,2,2-trifluoroacetate], the inhibition at 0.01 µM in assay [1] was determined as 39%; in assay [2], 18%. In addition, the inhibition at 0.1 µM in assay [1] (compound concentration 0.1 μM) was found to be 89%; in assay [2] (compound concentration 0.1 μM) it was 62%.
For `C[C@H](Nc1ncnc2[nH]ccc(=O)c12)c1c(Cl)c2cccc(-c3cnc(CC#N)nc3)c2c(=O)n1-c1ccccc1` [Example 39, (S)-2-(5-(4-chloro-1-oxo-3-(1-((5-oxo-5,8-dihydropyrido[2,3-d]pyrimidin-4-yl)amino)ethyl)-2-phenyl-1,2-dihydroisoquinolin-8-yl)pyrimidin-2-yl)acetonitrile], the figures for the inhibition at 0.01 µM in assay [1] and in assay [2] were 47% and 57%, respectively.
On to `Cc1ncc(-c2cccc3c(Cl)c([C@H](C)Nc4ncnc5[nH]ccc(=O)c45)n(-c4ccccc4)c(=O)c23)cn1` [Example 136, (S)-4-((1-(4-chloro-8-(2-methylpyrimidin-5-yl)-1-oxo-2-phenyl-1,2-dihydroisoquinolin-3-yl)ethyl)amino)pyrido[2,3-d]pyrimidin-5(8H)-one], for which the inhibition at 0.01 µM stood at 83% in assay [1] and 75% in assay [2]. Further, the inhibition at 0.1 µM turned out to be 93% in assay [1] (compound concentration 0.1 μM) and 97% in assay [2] (compound concentration 0.1 μM).
In the case of `C[C@H](Nc1ncnc2[nH]ccc(=O)c12)c1c(Cl)c2cccc(-c3ccc(C(F)(F)F)cc3Cl)c2c(=O)n1-c1ccccc1` [Example 256, (S)-4-((1-(4-chloro-8-(2-chloro-4-(trifluoromethyl)phenyl)-1-oxo-2-phenyl-1,2-dihydroisoquinolin-3-yl)ethyl)amino)pyrido[2,3-d]pyrimidin-5(8H)-one], the inhibition at 0.01 µM in assay [1] was 75%; in assay [2], 44%. For the same compound, the inhibition at 0.1 µM was determined as 100% in assay [1] (compound concentration 0.1 μM) and 77% in assay [2] (compound concentration 0.1 μM).
Take `C[C@H](Nc1ncnc2[nH]ccc(=O)c12)c1c(Cl)c2cccc(C(F)(F)F)c2c(=O)n1-c1ccccc1` [Example 389, (S)-4-((1-(4-chloro-1-oxo-2-phenyl-8-(trifluoromethyl)-1,2-dihydroisoquinolin-3-yl)ethyl)amino)pyrido[2,3-d]pyrimidin-5(8H)-one]: the values for the inhibition at 0.1 µM in assay [1] (compound at 0.1 μM) and in assay [2] (compound at 0.1 μM) were 90% and 32%, respectively.
`COc1cncc(-c2cccc3c(Cl)c([C@H](C)Nc4ncnc5[nH]ccc(=O)c45)n(-c4ccccc4)c(=O)c23)n1` [Example 204, (S)-4-((1-(4-chloro-8-(6-methoxypyrazin-2-yl)-1-oxo-2-phenyl-1,2-dihydroisoquinolin-3-yl)ethyl)amino)pyrido[2,3-d]pyrimidin-5(8H)-one]: the results for the inhibition at 0.01 µM in assay [1] and in assay [2] were 73% and 66%, respectively.
On the same counts, the results for `C[C@H](Nc1ncnc2[nH]ccc(=O)c12)c1c(Cl)c2cccc(/C=N/O)c2c(=O)n1-c1ccccc1` [Example 273, (S,E)-4-chloro-1-oxo-3-(1-((5-oxo-5,8-dihydropyrido[2,3-d]pyrimidin-4-yl)amino)ethyl)-2-phenyl-1,2-dihydroisoquinoline-8-carbaldehyde oxime] are 44% and 36%.
With `C[C@H](Nc1ncnc2[nH]ccc(=O)c12)c1c(Cl)c2cccc(-c3cc(Cl)ccc3F)c2c(=O)n1-c1ccccc1` [Example 140, (S)-4-((1-(4-chloro-8-(5-chloro-2-fluorophenyl)-1-oxo-2-phenyl-1,2-dihydroisoquinolin-3-yl)ethyl)amino)pyrido[2,3-d]pyrimidin-5(8H)-one], the inhibition at 0.01 µM came to 42% in assay [1] and 38% in assay [2]. In addition, the inhibition at 0.1 µM is 87% in assay [1] (compound concentration 0.1 μM) and 84% in assay [2] (compound concentration 0.1 μM).
On to `C[C@H](Nc1ncnc2[nH]ccc(=O)c12)c1c(Cl)c2cccc(-c3ccc4nccn4c3)c2c(=O)n1-c1ccccc1` [Example 113, (S)-4-((1-(4-chloro-8-(imidazo[1,2-a]pyridin-6-yl)-1-oxo-2-phenyl-1,2-dihydroisoquinolin-3-yl)ethyl)amino)pyrido[2,3-d]pyrimidin-5(8H)-one], for which the inhibition at 0.01 µM in assay [1] was determined as 82%; in assay [2], 79%. Also, the inhibition at 0.1 µM was 93% in assay [1] (compound concentration 0.1 μM) and 98% in assay [2] (compound concentration 0.1 μM).
On the same counts, the results for `C[C@H](Nc1ncnc2[nH]ccc(=O)c12)c1c(Cl)c2cccc(NCc3cccnc3)c2c(=O)n1-c1ccccc1` [Example 324, (S)-4-((1-(4-chloro-1-oxo-2-phenyl-8-((pyridin-3-ylmethyl)amino)-1,2-dihydroisoquinolin-3-yl)ethyl)amino)pyrido[2,3-d]pyrimidin-5(8H)-one] are 19%, 30%, 58% and 74%.
On the same counts, the results for `Cc1c[nH]c2ccc(-c3cccc4cc([C@H](C)Nc5ncnc6[nH]ccc(=O)c56)n(-c5ccccc5)c(=O)c34)cc12` [Example 263, (S)-4-((1-(8-(3-methyl-1H-indol-5-yl)-1-oxo-2-phenyl-1,2-dihydroisoquinolin-3-yl)ethyl)amino)pyrido[2,3-d]pyrimidin-5(8H)-one] are 77%, 6%, 89% and 52%.
In the case of `C[C@H](Nc1ncnc2[nH]ccc(=O)c12)c1c(Cl)c2cccc(-c3ccc(OCc4ccccc4)nc3)c2c(=O)n1-c1ccccc1` [Example 164, (S)-4-((1-(8-(6-(benzyloxy)pyridin-3-yl)-4-chloro-1-oxo-2-phenyl-1,2-dihydroisoquinolin-3-yl)ethyl)amino)pyrido[2,3-d]pyrimidin-5(8H)-one], the inhibition at 0.01 µM in assay [1] was determined as 46%; in assay [2] it was 20%.
On the same counts, the results for `C[C@H](Nc1ncnc2[nH]ccc(=O)c12)c1c(Cl)c2cccc(C(=O)NCC3CC3)c2c(=O)n1-c1ccccc1` [Example 283, (S)-4-chloro-N-(cyclopropylmethyl)-1-oxo-3-(1-((5-oxo-5,8-dihydropyrido[2,3-d]pyrimidin-4-yl)amino)ethyl)-2-phenyl-1,2-dihydroisoquinoline-8-carboxamide] are 81% and 12%.
As for `C[C@H](Nc1ncnc2[nH]ccc(=O)c12)c1c(Cl)c2cccc(-c3ccc4c(ccn4C)c3)c2c(=O)n1-c1ccccc1` [Example 116, (S)-4-((1-(4-chloro-8-(1-methyl-1H-indol-5-yl)-1-oxo-2-phenyl-1,2-dihydroisoquinolin-3-yl)ethyl)amino)pyrido[2,3-d]pyrimidin-5(8H)-one], the results for the inhibition at 0.01 µM in assay [1] and in assay [2] were 73% and 32%, respectively. The inhibition at 0.1 µM was found to be 101% in assay [1] (compound concentration 0.1 μM) and 91% in assay [2] (compound concentration 0.1 μM).
Consider `C[C@H](Nc1ncnc2[nH]ccc(=O)c12)c1c(Cl)c2cccc(-c3ccccc3)c2c(=O)n1-c1ccccc1` [Example 62, (S)-4-((1-(4-chloro-1-oxo-2,8-diphenyl-1,2-dihydroisoquinolin-3-yl)ethyl)amino)pyrido[2,3-d]pyrimidin-5(8H)-one], for which the inhibition at 0.01 µM in assay [1] amounted to 99%; in assay [2], 54%. Also, the inhibition at 0.1 µM worked out at 109% in assay [1] (compound concentration 0.1 μM) and 89% in assay [2] (compound concentration 0.1 μM).
On the same counts, the results for `C[C@H](Nc1ncnc2[nH]ccc(=O)c12)c1c(Cl)c2cccc(C#Cc3ccc(-c4ccccc4)cc3)c2c(=O)n1-c1ccccc1` [Example 310, (S)-4-((1-(8-([1,1′-biphenyl]-4-ylethynyl)-4-chloro-1-oxo-2-phenyl-1,2-dihydroisoquinolin-3-yl)ethyl)amino)pyrido[2,3-d]pyrimidin-5(8H)-one] are 31.5%, -2.5%, 20.4% and 3.2%.
With `C[C@H](Nc1ncnc2[nH]ccc(=O)c12)c1c(Cl)c2cccc(-c3cnc(N(C)C)cn3)c2c(=O)n1-c1ccccc1` [Example 205, (S)-4-((1-(4-chloro-8-(5-(dimethylamino)pyrazin-2-yl)-1-oxo-2-phenyl-1,2-dihydroisoquinolin-3-yl)ethyl)amino)pyrido[2,3-d]pyrimidin-5(8H)-one], the inhibition at 0.01 µM in assay [1] is 49%; in assay [2] it was 47%.
